19 molecules from patent publication US20230082430A1 (C4 Therapeutics, Inc., priority 2019, published 2023) can be followed below.

The test system of the assay is NCIH929.1 cells. Put plainly: Cell viability assay for Table 2 (CellTiter-Glo 2.0, ATP quantification, 96 hr). As to conditions: 96 h, NCIH929.1 cell viability, 96 hr, top concentration 1 μM, 14 points half log titration; read-out: IC50. Format: cell-based. From the text: Cell Viability Assay for Table 2
CellTiter-Glo® 2.0 Assay was purchased from Promega (Madison, Wis., USA). NCIH929.1 cell line was purchased from ATCC (Manassas, Va., USA). Cell culture flasks and 384-well microplates were acquired from VWR (Radnor, Pa., USA).

Where only a bound is given, the exact number is not on record here.

Consider `CC1(C(=O)N2CCC(C)(n3cc(Cc4ccc5c6c(cccc46)C(=O)N5C4CCC(=O)NC4=O)cn3)CC2)CC1` (stereo not shown) [Compound 83, 3-(6-((1-(4-methyl-1-(1-methylcyclopropane-1-carbonyl)piperidin-4-yl)-1H-pyrazol-4-yl)methyl)-2-oxobenzo[cd]indol-1(2H)-yl)piperidine-2,6-dione], for which the IC50 is less than 1 nM.
For `COC(C)(C)C(=O)N1CCC(C)(n2cc(Cc3ccc4c5c(cccc35)C(=O)N4C3CCC(=O)NC3=O)cn2)CC1` (stereo not shown) [Compound 84, 3-(6-((1-(1-(2-methoxy-2-methylpropanoyl)-4-methylpiperidin-4-yl)-1H-pyrazol-4-yl)methyl)-2-oxobenzo[cd]indol-1(2H)-yl)piperidine-2,6-dione] the value was less than 1 nM.
For `COCC(C)(C)C(=O)N1CCC(C)(n2cc(Cc3ccc4c5c(cccc35)C(=O)N4C3CCC(=O)NC3=O)cn2)CC1` (stereo not shown) [Compound 85, 3-(6-((1-(1-(3-methoxy-2,2-dimethylpropanoyl)-4-methylpiperidin-4-yl)-1H-pyrazol-4-yl)methyl)-2-oxobenzo[cd]indol-1(2H)-yl)piperidine-2,6-dione] the value was less than 1 nM; for `CC1(n2cc(Cc3ccc4c5c(cccc35)C(=O)N4C3CCC(=O)NC3=O)cn2)CCN(C(=O)C2(C#N)CCC2)CC1` (stereo not shown) [Compound 86, 1-(4-(4-((1-(2,6-dioxopiperidin-3-yl)-2-oxo-1,2-dihydrobenzo[cd]indol-6-yl)methyl)-1H-pyrazol-1-yl)-4-methylpiperidine-1-carbonyl)cyclobutane-1-carbonitrile], less than 1 nM; for `CC12CC(C(=O)N3CCC(C)(n4cc(Cc5ccc6c7c(cccc57)C(=O)N6C5CCC(=O)NC5=O)cn4)CC3)(CCO1)C2` (stereo not shown) [Compound 88, 3-(6-((1-(4-methyl-1-(1-methyl-2-oxabicyclo[3.1.1]heptane-5-carbonyl)piperidin-4-yl)-1H-pyrazol-4-yl)methyl)-2-oxobenzo[cd]indol-1(2H)-yl)piperidine-2,6-dione], less than 1 nM.
For `CC1(n2cc(Cc3ccc4c5c(cccc35)C(=O)N4C3CCC(=O)NC3=O)cn2)CCN(C(=O)C23CCCC(C2)C3)CC1` (stereo not shown) [Compound 89, 3-(6-((1-(1-(bicyclo[3.1.1]heptane-1-carbonyl)-4-methylpiperidin-4-yl)-1H-pyrazol-4-yl)methyl)-2-oxobenzo[cd]indol-1(2H)-yl)piperidine-2,6-dione] the value was less than 1 nM.
Consider `CC1(n2cc(Cc3ccc4c5c(cccc35)C(=O)N4C3CCC(=O)NC3=O)cn2)CCN(C(=O)C23CC(CO2)C3)CC1` (stereo not shown) [Compound 90, 3-(6-((1-(1-(2-oxabicyclo[2.1.1]hexane-1-carbonyl)-4-methylpiperidin-4-yl)-1H-pyrazol-4-yl)methyl)-2-oxobenzo[cd]indol-1(2H)-yl)piperidine-2,6-dione], for which the 50% inhibitory concentration (IC50) is less than 1 nM.
For `CC1(n2cc(Cc3ccc4c5c(cccc35)C(=O)N4C3CCC(=O)NC3=O)cn2)CCN(C(=O)C23CC(C2)C3)CC1` (stereo not shown) [Compound 91, 3-(6-((1-(1-(bicyclo[1.1.1]pentane-1-carbonyl)-4-methylpiperidin-4-yl)-1H-pyrazol-4-yl)methyl)-2-oxobenzo[cd]indol-1(2H)-yl)piperidinc-2,6-dione] the value was less than 1 nM.
Consider `CC1(C(=O)N2CCC(C)(n3cc(Cc4ccc5c6c(cccc46)C(=O)N5C4CCC(=O)NC4=O)cn3)CC2)CCC1` (stereo not shown) [Compound 92, 3-(6-((1-(4-methyl-1-(1-methylcyclobutane-1-carbonyl)piperidin-4-yl)-1H-pyrazol-4-yl)methyl)-2-oxobenzo[cd]indol-1(2H)-yl)piperidine-2,6-dione], for which the half-maximal inhibitory concentration (IC50) was less than 1 nM.
Regarding `CC(C)(C)C(=O)N1CCC(C)(n2cc(Cc3ccc4c5c(cccc35)C(=O)N4C3CCC(=O)NC3=O)cn2)CC1` (stereo not shown) [Compound 93], the half-inhibitory concentration (IC50) is less than 1 nM.
For `CC1(C(=O)N2CCC(C)(n3cc(Cc4ccc5c6c(cccc46)C(=O)N5C4CCC(=O)NC4=O)cn3)CC2)COC1` (stereo not shown) [Compound 94, 3-(6-((1-(4-methyl-1-(3-methyloxetane-3-carbonyl)piperidin-4-yl)-1H-pyrazol-4-yl)methyl)-2-oxobenzo[cd]indol-1(2H)-yl)piperidine-2,6-dione] the value was less than 1 nM; for `CC(C)(CF)C(=O)N1CCC(C)(n2cc(Cc3ccc4c5c(cccc35)C(=O)N4C3CCC(=O)NC3=O)cn2)CC1` (stereo not shown) [Compound 95, 3-(6-((1-(1-(3-fluoro-2,2-dimethylpropanoyl)-4-methylpiperidin-4-yl)-1H-pyrazol-4-yl)methyl)-2-oxobenzo[cd]indol-1(2H)-yl)piperidine-2,6-dione], less than 1 nM.
With `CC(C)(F)C(=O)N1CCC(C)(n2cc(Cc3ccc4c5c(cccc35)C(=O)N4C3CCC(=O)NC3=O)cn2)CC1` (stereo not shown) [Compound 96, 3-(6-((1-(1-(2-fluoro-2-methylpropanoyl)-4-methylpiperidin-4-yl)-1H-pyrazol-4-yl)methyl)-2-oxobenzo[cd]indol-1(2H)-yl)piperidine-2,6-dione], the IC50 was less than 1 nM.
For `CC(C)(Cl)C(=O)N1CCC(C)(n2cc(Cc3ccc4c5c(cccc35)C(=O)N4C3CCC(=O)NC3=O)cn2)CC1` (stereo not shown) [Compound 97, 3-(6-((1-(1-(2-chloro-2-methylpropanoyl)-4-methylpiperidin-4-yl)-1H-pyrazol-4-yl)methyl)-2-oxobenzo[cd]indol-1(2H)-yl)piperidine-2,6-dione] the value was less than 1 nM; for `CC(C)(CO)C(=O)N1CCC(C)(n2cc(Cc3ccc4c5c(cccc35)C(=O)N4C3CCC(=O)NC3=O)cn2)CC1` (stereo not shown) [Compound 98, 3-(6-((1-(1-(3-hydroxy-2,2-dimethylpropanoyl)-4-methylpiperidin-4-yl)-1H-pyrazol-4-yl)methyl)-2-oxobenzo[cd]indol-1(2H)-yl)piperidine-2,6-dione], less than 1 nM; for `CC1(CN2CCC(C)(n3cc(Cc4ccc5c6c(cccc46)C(=O)N5C4CCC(=O)NC4=O)cn3)CC2)CC1` (stereo not shown) [Compound 100, 3-(6-((1-(4-methyl-1-((1-methylcyclopropyl)methyl)piperidin-4-yl)-1H-pyrazol-4-yl)methyl)-2-oxobenzo[cd]indol-1(2H)-yl)piperidine-2,6-dione], less than 1 nM.
For `COC1(CN2CCC(C)(n3cc(Cc4ccc5c6c(cccc46)C(=O)N5C4CCC(=O)NC4=O)cn3)CC2)CC1` (stereo not shown) [Compound 101, 3-(6-((1-(1-((1-methoxycyclopropyl)methyl)-4-methylpiperidin-4-yl)-1H-pyrazol-4-yl)methyl)-2-oxobenzo[cd]indol-1(2H)-yl)piperidine-2,6-dione] the value was less than 1 nM; for `CC1(n2cc(Cc3ccc4c5c(cccc35)C(=O)N4C3CCC(=O)NC3=O)cn2)CCN(CC2(C#N)CC2)CC1` (stereo not shown) [Compound 102, 1-((4-(4-((1-(2,6-dioxopiperidin-3-yl)-2-oxo-1,2-dihydrobenzo[cd]indol-6-yl)methyl)-1H-pyrazol-1-yl)-4-methylpiperidin-1-yl)methyl)cyclopropane-1-carbonitrile], less than 1 nM; for `COC1(CN2CCC(C)(n3cc(Cc4ccc5c6c(cccc46)C(=O)N5C4CCC(=O)NC4=O)cn3)CC2)CCC1` (stereo not shown) [Compound 103, 3-(6-((1-(1-((1-methoxycyclobutyl)methyl)-4-methylpiperidin-4-yl)-1H-pyrazol-4-yl)methyl)-2-oxobenzo[cd]indol-1(2H)-yl)piperidine-2,6-dione], less than 1 nM.

By IC50 is commonly meant the concentration that gives 50% inhibition.
